The subject of this assay is Rattus norvegicus. Nature of the assay: Antihypertensive activity in po dosed renal hypertensive rat assessed as dose required to produce lowering of blood pressure to <= 130 mm after 2 to 24 hrs by photoelectric tensometric analysis. It counts as functional.
Consider `O=S(=O)(O)O.c1ccc2c(c1)CCN=C2NCc1ccncc1`, for which the ED50 – broadly, the dose that gives a 50% effect, or the effect in half of the subjects – was more than 50 mg/kg. To `CCN(CC)CCOc1ccc(CNC2=NCCc3ccccc32)cc1.O=S(=O)(O)c1cccc2c(S(=O)(=O)O)cccc12` belongs more than 50 mg/kg; to `CN(C)CCNC1=NCCc2ccccc21.Cl`, more than 50 mg/kg; to `CC(C)=NNC1=NCCc2ccccc21.O=S(=O)(O)O`, 15 mg/kg. Take `F[B-](F)(F)F.[NH3+]NC1=NCC(O)c2ccccc21` (stereo unspecified): the 50% effective dose (ED50) was more than 50 mg/kg. To `NNC1=NCCc2ccccc21` belongs 30 mg/kg. As to `COc1cccc(/C=N/NC2=NCCc3ccccc32)c1OC.Cl`, the ED50 is more than 50 mg/kg. To `CC1Cc2ccccc2C(NN)=N1.Cl` (stereo unspecified) belongs 40 mg/kg; to `O=S(=O)(O)O.c1ccc2c(c1)CCN=C2NCCc1ccc2c(c1)OCO2`, more than 50 mg/kg; to `C/C=N/NC1=NCCc2ccccc21.O=S(=O)(O)O`, 15 mg/kg. In the case of `O=S(=O)(O)c1cccc2c(S(=O)(=O)O)cccc12.c1ccc(CONC2=NCCc3ccccc32)cc1`, the ED50 was more than 50 mg/kg.

Take `CCCC/C=N/NC1=NCCc2ccccc21.Cl`: the ED50 was more than 50 mg/kg. Regarding `Cl.Oc1ccc(CCNC2=NCCc3ccccc32)cc1O`, the ED50 is more than 50 mg/kg. The figure for `COc1ccc(CCNC2=NCCc3ccccc32)cc1OC.O=S(=O)(O)O` is more than 50 mg/kg; for `O=S(=O)(O)O.c1ccc2c(c1)CCN=C2NN=C1CCCCC1` it is more than 50 mg/kg. As to `COc1cc(CCNC2=NCCc3ccccc32)cc(OC)c1OC.O=S(=O)(O)O`, the ED50 is more than 50 mg/kg.

In the case of `Cl.c1ccc2c(c1)CCN=C2N1CCCCC1`, the ED50 was more than 50 mg/kg. The figure for `CCCCCCNC1=NCCc2ccccc21.O=S(=O)(O)O` is more than 50 mg/kg. To `COc1cc(/C=N/NC2=NCCc3ccccc32)cc(OC)c1O.Cl` belongs more than 50 mg/kg.

Consider `C/C=C/C(C)=N\NC1=NCCc2ccccc21.O=S(=O)(O)O`, for which the median effective dose (ED50) was more than 50 mg/kg. `CN(C)NC1=NCCc2ccccc21.Cl`: the ED50 is more than 50 mg/kg.

On to `Cl.NC1=NCCc2ccccc21`, for which the ED50 is more than 50 mg/kg. The figure for `COc1ccc(NC2=NCCc3ccccc32)cc1` is more than 50 mg/kg; for `NNc1nncc2ccccc12` [HYDRALAZINE] it is 10 mg/kg. The figure for `C(=N\NC1=NCCc2ccccc21)/c1ccccc1.Cl` is more than 50 mg/kg; for `Nc1ccc(CCNC2=NCCc3ccccc32)cc1Cl.O=S(=O)(O)O` it is more than 50 mg/kg.
